# Target: Recombinant human Mat2a (Homo sapiens, UniProt P31153)
# Assay: Determination of Mat2A activity (384 well absorbance-based assay, Biomol Green)
# Type: biochemical
# Settings: 12.5 nM Mat2A, 100 μM ATP and Methionine, 2% DMSO, 120 minutes at RT, absorbance at 635 nm
# Method: Determination of Mat2A activity
# Measurement of Mat2A inhibition is performed in 384 well format absorbance-based assay. Recombinant human Mat2a (12.5 nM) and serial diluted compounds in DMSO (range of concentrations from […] to 508 pM) or controls (DMSO) are incubated for 15 minutes at room temperature (RT) in assay buffer containing 50 mM HEPES pH 7.5, 50 mM KCl, 50 mM MgCl2, 0.01% Tween 20 and 10 mM DTT. The reaction is initiated by the addition of the combined substrates ATP and Methionine, each at a final concentration of 100 μM. Final assay condition are 12.5 nM Mat2A, 100 μM ATP and Methionine Substrates and 2% DMSO. After 120 minutes of incubation at RT, the reaction is stopped by the addition of Biomol Green. The absorbance signal is measured at λ=635 nm with a multiplate reader (BMG Pherastar reader or equivalent) after 30 min of equilibration at RT.
# Chain of Recombinant human Mat2a (P31153 whole entry): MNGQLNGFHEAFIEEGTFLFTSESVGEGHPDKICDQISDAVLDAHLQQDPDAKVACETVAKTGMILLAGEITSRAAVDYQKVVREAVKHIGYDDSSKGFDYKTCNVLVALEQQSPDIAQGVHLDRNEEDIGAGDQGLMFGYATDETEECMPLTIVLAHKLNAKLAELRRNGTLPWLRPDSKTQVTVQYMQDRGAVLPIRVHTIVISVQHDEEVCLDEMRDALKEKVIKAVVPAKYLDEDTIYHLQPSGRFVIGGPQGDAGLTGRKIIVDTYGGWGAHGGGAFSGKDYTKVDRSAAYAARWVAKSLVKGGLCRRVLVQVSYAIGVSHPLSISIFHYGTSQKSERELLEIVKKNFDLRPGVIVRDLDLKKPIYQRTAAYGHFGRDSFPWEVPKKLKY
row,Structure (SMILES),IC50 [nM]
1,"Cc1ncccc1-n1c(=O)nc(N)c2ccc([C@@H]3C[C@H]3C)nc21 (racemic) [Example 23, 4-amino-7-((1RS,2RS)-2-methylcyclopropyl)-1-(2-methylpyridin-3-yl)pyrido[2,3-d]pyrimidin-2(1H)-one]",18
2,"Nc1nc(=O)n([C@H]2CCC[C@H]2O)c2nc(C3CC3)ccc12 (racemic) [Example 24, 4-amino-7-cyclopropyl-1-((1SR,2RS)-2-hydroxycyclopentyl)pyrido[2,3-d]pyrimidin-2(1H)-one]",17
3,"C[C@@H]1OCC[C@H]1n1c(=O)nc(N)c2ccc(C3CC3)nc21 (racemic) [Example 30, 4-amino-7-cyclopropyl-1-[rac-(2RS,3SR)-2-methyloxolan-3-yl]pyrido[2,3-d]pyrimidin-2-one]",22
4,"Cn1nccc1-n1c(=O)nc(N)c2ccc(N3C[C@H]4CC[C@@H]3C4)nc21 (racemic) [Example 57, 4-amino-7-[(1SR,4RS)-3-azabicyclo[2.2.1]heptan-3-yl]-1-(2-methylpyrazol-3-yl)pyrido[2,3-d]pyrimidin-2-one]",150
5,"C[C@@H]1OCCC[C@@H]1n1c(=O)nc(N)c2ccc(C3CC3)nc21 (racemic) [Example 121, 4-amino-7-cyclopropyl-1-[(2SR,3SR)-2-methyltetrahydropyran-3-yl]pyrido[2,3-d]pyrimidin-2-one]",14
6,"C[C@@H]1OCC[C@@H]1n1c(=O)nc(N)c2ccc(C3CC3)nc21 (relative stereo) [Example 89, 4-amino-7-cyclopropyl-1-((cis)-2-methyltetrahydrofuran-3-yl)pyrido[2,3-d]pyrimidin-2(1H)-one]",53
7,"Cc1c(F)cccc1-n1c(=O)nc(N)c2ccc(C3CC3)nc21 (single isomer, unassigned) [Example 104, (−)-4-amino-7-cyclopropyl-1-(3-fluoro-2-methylphenyl)pyrido[2,3-d]pyrimidin-2 (1H)-one]",110
8,"Nc1nc(=O)n(-c2ccccc2Cl)c2nc(C3CC3)ccc12 (single isomer, unassigned) [Example 115, (−)-4-amino-1-(2-chlorophenyl)-7-cyclopropylpyrido[2,3-d]pyrimidin-2 (1H)-one]",72
9,"Nc1nc(=O)n(-c2cccc(F)c2Cl)c2nc(C3CC3)ccc12 (single isomer, unassigned) [Example 117, (−)-4-amino-1-(2-chloro-3-fluorophenyl)-7-cyclopropylpyrido[2,3-d]pyrimidin-2 (1H)-one]",78
10,"Nc1nc(=O)n(-c2cccnc2Cl)c2nc(C3CC3)ccc12 (single isomer, unassigned) [Example 136, (−)-4-amino-1-(2-chloropyridin-3-yl)-7-cyclopropylpyrido[2,3-d]pyrimidin-2 (1H)-one]",150
11,"Cc1c(C#N)cccc1-n1c(=O)nc(N)c2ccc(C3CC3)nc21 (single isomer, unassigned) [Example 146, (−)-3-(4-amino-7-cyclopropyl-2-oxopyrido[2,3-d]pyrimidin-1 (2H)-yl)-2-methylbenzonitrile]",58
12,"Cc1ccccc1-n1c(=O)nc(N)c2ccc(C(C)(C)C)nc21 [Example 3, 4-amino-7-(tert-butyl)-1-(o-tolyl)pyrido[2,3-d]pyrimidin-2(1H)-one]",22
13,"COc1ccccc1-n1c(=O)nc(N)c2ccc(-c3ccccc3)nc21 [Example 4, 4-amino-1-(2-methoxyphenyl)-7-phenylpyrido[2,3-d]pyrimidin-2(1H)-one]",31
14,"Cc1ccccc1-n1c(=O)nc(N)c2ccc(N3CC(F)(F)C3)nc21 [Example 5, 4-amino-7-(3,3-difluoroazetidin-1-yl)-1-(o-tolyl)pyrido[2,3-d]pyrimidin-2(1H)-one]",22
15,"Nc1nc(=O)n(C2CCOC2)c2nc(C3CC3)ccc12 (centres unmarked) [Example 6, 4-amino-7-cyclopropyl-1-(tetrahydrofuran-3-yl)pyrido[2,3-d]pyrimidin-2(1H)-one]",28

# Results, then the molecule that gave them:
row,IC50 [nM],Structure (SMILES)
1,14,"Nc1nc(=O)n([C@@H]2CCCOC2)c2nc([C@@H]3C[C@H]3F)ccc12 (mixture of isomers) [Example 49, 4-amino-7-[(1SR,2RS)-2-fluorocyclopropyl]-1-[(3R)-tetrahydropyran-3-yl]pyrido[2,3-d]pyrimidin-2-one]"
2,< 13,"Cc1ncccc1-n1c(=O)nc(N)c2ccc([C@H]3C[C@@H]3F)nc21 (racemic) [Example 36, 4-amino-7-[(1RS,2SR)-2-fluorocyclopropyl]-1-(2-methyl-3-pyridyl)pyrido[2,3-d]pyrimidin-2-one]"
3,< 13,"Cc1c(F)cccc1-n1c(=O)nc(N)c2ccc(C3CC3)nc21 (single isomer, unassigned) [Example 103, (+)-4-amino-7-cyclopropyl-1-(3-fluoro-2-methylphenyl)pyrido[2,3-d]pyrimidin-2 (1H)-one]"
4,< 13,"Nc1nc(=O)n(-c2ccccc2Cl)c2nc(C3CC3)ccc12 (single isomer, unassigned) [Example 114, (+)-4-amino-1-(2-chlorophenyl)-7-cyclopropylpyrido[2,3-d]pyrimidin-2 (1H)-one]"
5,< 13,"Nc1nc(=O)n(-c2cccc(F)c2Cl)c2nc(C3CC3)ccc12 (single isomer, unassigned) [Example 116, (+)-4-amino-1-(2-chloro-3-fluorophenyl)-7-cyclopropylpyrido[2,3-d]pyrimidin-2 (1H)-one]"
6,< 13,"Nc1nc(=O)n(-c2cccnc2Cl)c2nc(C3CC3)ccc12 (single isomer, unassigned) [Example 135, (+)-4-amino-1-(2-chloropyridin-3-yl)-7-cyclopropylpyrido[2,3-d]pyrimidin-2 (1H)-one]"
7,< 13,"Cc1c(C#N)cccc1-n1c(=O)nc(N)c2ccc(C3CC3)nc21 (single isomer, unassigned) [Example 145, (+)-3-(4-amino-7-cyclopropyl-2-oxopyrido[2,3-d]pyrimidin-1 (2H)-yl)-2-methylbenzonitrile]"
8,< 13,"Cc1ccccc1-n1c(=O)nc(N)c2ccc(C3CC3)nc21 [Example 1, 4-amino-7-cyclopropyl-1-(o-tolyl)pyrido[2,3-d]pyrimidin-2(1H)-one]"
9,< 13,"COc1ccccc1-n1c(=O)nc(N)c2ccc(C3CC3)nc21 [Example 2, 4-amino-7-cyclopropyl-1-(2-methoxyphenyl)pyrido[2,3-d]pyrimidin-2(1H)-one]"
10,< 13,"Cc1ncccc1-n1c(=O)nc(N)c2ccc(C3CC3)nc21 [Example 7, 4-amino-7-cyclopropyl-1-(2-methylpyridin-3-yl)pyrido[2,3-d]pyrimidin-2(1H)-one]"
11,< 13,"Cc1ccccc1-n1c(=O)nc(N)c2ccc(C3CC3)cc21 [Example 8, 4-amino-7-cyclopropyl-1-(o-tolyl)quinazolin-2 (1H)-one]"
12,< 13,"COc1ncccc1-n1c(=O)nc(N)c2ccc(C3CC3)nc21 [Example 9, 4-amino-7-cyclopropyl-1-(2-methoxypyridin-3-yl)pyrido[2,3-d]pyrimidin-2(1H)-one]"
13,< 13,"Cc1ncccc1-n1c(=O)nc(N)c2cc(F)c(C3CC3)nc21 [Example 10, 4-amino-7-cyclopropyl-6-fluoro-1-(2-methylpyridin-3-yl)pyrido[2,3-d]pyrimidin-2(1H)-one]"
14,< 13,"N#Cc1ncccc1-n1c(=O)nc(N)c2ccc(C3CC3)nc21 [Example 11, 3-(4-amino-7-cyclopropyl-2-oxopyrido[2,3-d]pyrimidin-1(2H)-yl)picolinonitrile]"
